{
  "source": "ChEMBL document CHEMBL1133413",
  "about": "“Selection of a potent inhibitor of trihydroxynaphthalene reductase by sorting disease control data” (Bioorg Med Chem Lett, 2000)",
  "target": "T1, Scytalone dehydratase (Magnaporthe oryzae (strain 70-15 / FGSC 8958) (Rice blast fungus)(Pyricularia oryzae), UniProt P56221)",
  "T1 sequence (P56221 whole entry)": "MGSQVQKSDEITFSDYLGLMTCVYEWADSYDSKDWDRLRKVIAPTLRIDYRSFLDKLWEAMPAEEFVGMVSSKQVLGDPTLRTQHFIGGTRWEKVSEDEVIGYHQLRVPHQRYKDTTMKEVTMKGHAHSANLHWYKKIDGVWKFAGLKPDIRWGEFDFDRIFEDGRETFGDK",
  "assay": "Compound was evaluated for its inhibition constant against scytalone dehydratase (SD)",
  "design": "species or system Pyricularia grisea",
  "data": [
    {"smiles": "O=C(/C=C/c1ccccc1)NC(=S)Nc1ccc(S(=O)(=O)Nc2cc(F)ccc2F)cc1", "values": [
      {"measurement": "Ki", "result": 6.4, "unit": "nM"}
    ]}
  ]
}
